According to patent publication US20220265591A1, “USE OF AN OSMOLYTE IN MANUFACTURE OF A MEDICAMENT FOR TREATMENT OF OCULAR DISORDERS” (SINGAPORE HEALTH SERVICES PTELTD, priority 2019, published 2022):
Read-outs that look alike come from different tables or passages of the source.

Key:
[1] = target: T1, preformed amyloid fibrils from TGFBIp611-633 G623R peptide (Homo sapiens, UniProt Q15582, G623R); test: ThT fluorescence assay, dissolution of preformed amyloid fibrils; type: biochemical; details: for inhibition at 200000 µM: preformed fibrils, read-out: % Inhibition (mean ± SD) n = 3, dissolution of amyloid fibrils, ThT fluorescence; for % Dissolution at final time point, ThT: TGFBIp-G623R preformed fibrils
T1 construct: The 23-amino acid long peptide (TGFBIp 611-633 c.623 G>R) from the 4th FAS1 domain; purchased Synpeptide Co Ltd, Shanghai, China; host or cells: synthetic peptide
T1 sequence (Q15582 611-633 G623R limits assumed): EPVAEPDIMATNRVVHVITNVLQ
Procedure: The TGFBIp^611-633 G623R peptides were incubated in PBS for 24 hours, allowed to form uniform amyloid fibrils. The TGFBIp^611-633 G623R peptide solution was then subjected to Circular Dichroism spectroscopy to confirm the formation of amyloid fibrils.
The preformed amyloid fibril solution incubated with PBS was used as a control.
The peptide samples collected at the various time points above were treated with 30 μM ThT in PBS buffer at pH 5.5 in a 96-well microplate for ThT fluorescence assay. The microplate was excited at […] and the resulting emission fluorescence at 485 nm was measured using a microplate reader (Tecan Infinite M200 Pro, CA, USA).
(§1) The preformed amyloid fibrils were treated with taurine at a concentration of 200 mM and 320 mM for up to 72 hours, respectively. The preformed amyloid fibrils incubated with PBS were used as controls.
(§2) The samples were collected at 24 h, 48 h and 72 h after treatment for the TGFBIp^611-633 G623R peptides, and at 24 h, 48 h, 96 h and 144 h after treatment for the TGFBIp^611-633 N622K peptides. The samples were then treated with 30 μM ThT in PBS buffer at pH 5.5 in a 96-well microplate for ThT fluorescence assay. The microplate was excited at 445 nm and the resulting emission fluorescence at 485 nm was measured using a microplate reader.

[2] = target: T2, TGFBIp611-633 N622K peptide (Homo sapiens, UniProt Q15582, N622K); test: Circular Dichroism assay, inhibition of amyloid fibrillation; type: biochemical; details: TGFBIp-N622K, final time point, read-out: % Inhibition at final time point, CD
T2 construct: The TGFBIp^611-633 N622K peptides were treated with 200 mM and 320 mM of taurine; purchased Synpeptide Co Ltd, Shanghai, China; host or cells: synthetic peptide
T2 sequence (Q15582 611-633 N622K limits assumed): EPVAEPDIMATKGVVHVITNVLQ
Procedure: Circular Dichroism (CD) spectroscopy was performed to study the changes in the secondary structure of the peptides. The TGFBIp^611-633 G623R peptides were treated with 200 mM and 320 mM of taurine in PBS buffer at pH 7.0 for 24 h, 48 h and 72 h, respectively. While the TGFBIp^611-633 N622K peptides were treated with 200 mM and 320 mM of taurine in PBS buffer at pH 7.0 for 72 h, 96 h, 120 h, 144 h, 192 h, 216 h, and 240 h, respectively. The treatment solutions were studied by far UV-CD assay.

[3] = target: T3, preformed amyloid fibrils from TGFBIp611-633 N622K peptide (Homo sapiens, UniProt Q15582, N622K); test: ThT fluorescence assay, dissolution of preformed amyloid fibrils; type: biochemical; details: TGFBIp-N622K preformed fibrils
T3 construct: purchased Synpeptide Co Ltd, Shanghai, China; host or cells: synthetic peptide
Procedure: The model peptides TGFBIp^611-633 G623R and TGFBIp^611-633 N622K were incubated in PBS for 24 hours for the TGFBIp^611-633 G623R peptide and 96 hours for the TGFBIp^611-633 N622K peptide, allowed to form uniform amyloid fibrils. The formation of amyloid fibrils was confirmed by (SEM) and CD spectroscopy.
as §1, §2

[4] = target: T1, preformed amyloid fibrils from TGFBIp611-633 G623R peptide; test: ThT fluorescence microscopy, disaggregation of preformed amyloid fibrils; details: 200 mM and 320 mM
Procedure: The ability of osmolytes to disaggregate the preformed amyloid fibrils were investigated further by fluorescence microscopy after ThT staining. The peptide samples collected at the various time points above were incubated at a ratio of 1:1 ratio of thpeptide solution to ThT in the dark for 30 minutes to obtain solutions for fluorescence microscopy. 25 μl of the solutions were taken on to slides with coverslips and visualized under a fluorescent microscope. Three representative images from each time point under a given condition was used for the quantitation of fluorescence. Image J software was used to quantify the signal from the images and the values for each time point per osmolyte treatment were normalised to the untreated sample at that particular time point.
The inhibition effect of taurine on the preformed amyloid fibrils was investigated further by fluorescence microscopy after ThT staining. The samples collected at the various time points above were incubated ThT at a ratio of 1:1 ratio in the dark for 30 minutes to obtain solutions for fluorescence microscopy. 25 μl of the solutions were taken on to slides with coverslips and visualized under a fluorescent microscope.

[5] = target: T2, TGFBIp611-633 N622K peptide; test: ThT fluorescence assay, inhibition of amyloid fibrillation; type: biochemical; details: TGFBIp-N622K, final time point
Procedure: The TGFBIp^611-633 G623R peptides were treated with 200 mM and 320 mM of taurine for up to 72 hours, respectively, the results of which are illustrated in FIG. 11. The TGFBIp^611-633 N622K peptides were treated with 200 mM and 320 mM of taurine for up to 240 hours, respectively, the results of which are illustrated in FIG. 12. The peptides incubated with PBS were used as controls.
The peptide samples were collected at 24 h, 48 h and 72 h after treatment for TGFBIp^611-633 G623R peptides and at 120 h, 144 h and […] after treatment for the TGFBIp^611-633 N622K peptides. The samples were then treated with 30 μM ThT in PBS buffer at pH 5.5 in a 96-well microplate for ThT fluorescence assay. The microplate was excited at 445 nm and the resulting emission fluorescence at 485 nm was measured using a microplate reader.

Row | Compound | inhibition at 200000 µM ([1]; 200 mM, 24 h) | inhibition at 200000 µM ([1]; 200 mM, 48 h) | inhibition at 200000 µM ([1]; 200 mM, 72 h) | inhibition at 200000 µM ([2]; 200 mM) | inhibition at 320000 µM ([2]; 320 mM) | % Dissolution at final time point, ThT ([3]; 200 mM) | % Dissolution at final time point, ThT ([3]; 200 mM, listed as taurine) | % Dissolution at final time point, ThT ([3]; 320 mM) | % Dissolution at final time point, ThT ([3]; 320 mM, listed as taurine) | fluorescent intensity under microscope, preformed fibrils [4] | inhibition at 200000 µM ([5]; 200 mM) | inhibition at 320000 µM ([5]; 320 mM) | % Dissolution at final time point, ThT ([1]; 200 mM) | % Dissolution at final time point, ThT ([1]; 200 mM, listed as taurine) | % Dissolution at final time point, ThT ([1]; 320 mM) | % Dissolution at final time point, ThT ([1]; 320 mM, listed as taurine)
1 | C[N+](C)(C)CC(=O)O [Betaine, betaine] | 4 ± 3% | 34 ± 11% | 37 ± 17% | – | – | – | – | – | – | – | – | – | – | – | – | –
2 | OC[C@H]1O[C@H](OC[C@H]2O[C@H](O[C@]3(CO)O[C@H](CO)[C@@H](O)[C@@H]3O)[C@H](O)[C@@H](O)[C@@H]2O)[C@H](O)[C@@H](O)[C@H]1O [Raffinose, raffinose] | 14 ± 4% | 48 ± 6% | 64% | – | – | – | – | – | – | – | – | – | – | – | – | –
3 | CNCC(=O)O [Sarcosine, sarcosine] | 24 ± 3% | 47 ± 4% | 53 ± 3% | – | – | – | – | – | – | – | – | – | – | – | – | –
4 | NCCS(=O)(=O)O [Taurine, taurine] | 23 ± 1% | 52 ± 5% | 61% | 39% | 66% | 83% | 83% | 88% | 88% | reduction in fluorescent intensity | 37% | 76% | 63% | 64% | 83% | 83%
